Data set [1] can be described thus: plasma pharmacokinetics after oral dosing in Lewis rat. It counts as in vivo. The following applies: 10 mg/kg oral in 0.4% methylcellulose, n = 3, read-out: AUC (0-24 hr). The method, then: SCH 546738 was tested at concentrations of 1-10 μM against a panel of 49 GPCR binding assays. Most of the assays were not affected by SCH 546738 (Table 2). […] In addition, SCH 546738 has a favourable pharmacokinetic profile in rodents. […] Therefore, SCH 546738 is suitable for in vivo preclinical studies.
Figure 4 Plasma concentration versus time profiles of SCH 546738 in Lewis rat and C57BL/6 mouse. SCH 546738 in 0.4% methylcellulose was administered orally at 10 mg/kg (mpk) in Lewis rats or 30 mpk in C57BL/6 mice. The plasma concentration of SCH 546738 in the blood was calculated as the mean of 3 animals (n = 3) at indicated time points post-dose. Their AUC from 0 to 24 hr is also calculated and indicated.

The test system of a further data set is male B10.RIII mice. As to the kind of experiment: mouse collagen-induced arthritis (disease score and paw histopathology). The class given is in vivo.
The subject of another data set is C57BL/6 mice. As to the kind of experiment: mouse experimental autoimmune encephalomyelitis (MOG35-55). The class given is in vivo.
A further data set relates to Lewis rats. Kind of data set: rat experimental autoimmune encephalomyelitis. It counts as in vivo. Particulars: p.o. in 0.4% methylcellulose, varying doses; data not shown. Here is the method: Male Lewis rats challenged by injection of 50 µl (30 mg) of a guinea pig spinal cord homogenate in CFA into one footpad. The animals were treated starting at day 0 and oral dosing continued throughout the 3-week disease course, with varying amounts of SCH 546738 in 0.4% methylcellulose (MC) p.o. Animals were scored for disease severity: 0, no clinical signs; 1, flaccid tail; 2, hind limb weakness; 3, complete hind limb paralysis; 4, complete hind limb paralysis, forelimb weakness or paralysis; 5, death.
For CIA and EAE models, unpaired t-tests were performed using GraphPad InStat version 5.0.1 for Windows 98, GraphPad Software, San Diego California USA (http://www.graphpad.com). Statistical significance was evaluated by comparing the vehicle-treated group with the experimental group using unpaired t-test. Differences were considered significant when p values were <0.05.
Experimental autoimmune encephalomyelitis (EAE) is an animal model for human MS and development of disease is dependent on T cell infiltration into the CNS. In the murine model of EAE, SCH 546738 was tested in combination with interferon-β (IFN-β), a current first-line therapeutic for the amelioration of relapsing-remitting MS. C57BL/6 mice were primed by intravenous injection of pertussis toxin on day 0 and day 2. […] Disease progression was monitored by a scoring system as described in Methods. […]

Data set [2] has as its target T1, CXCR3 (Homo sapiens, UniProt P49682).
T1 sequence (P49682 1-368): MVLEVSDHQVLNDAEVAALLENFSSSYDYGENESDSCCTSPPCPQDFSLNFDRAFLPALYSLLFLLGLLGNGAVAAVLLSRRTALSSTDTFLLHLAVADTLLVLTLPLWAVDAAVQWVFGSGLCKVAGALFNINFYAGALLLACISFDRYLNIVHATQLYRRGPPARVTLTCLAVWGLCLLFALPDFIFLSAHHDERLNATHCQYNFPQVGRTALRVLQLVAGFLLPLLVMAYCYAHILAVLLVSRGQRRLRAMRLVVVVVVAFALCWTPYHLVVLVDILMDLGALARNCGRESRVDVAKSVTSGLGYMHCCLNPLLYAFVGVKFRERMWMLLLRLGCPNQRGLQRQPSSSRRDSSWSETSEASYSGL
As to the kind of experiment: competition binding analysis using 35S-SCH 535390 as tracer (SPA). Details: expressed in transfected cells; host or cells: mouse pro-B Ba/F3 cells (vector pME18Sneo), membrane preparation. The following applies: competition with 35S-SCH 535390 tracer; multiple experiments; read-out: affinity constant (Ki) of binding to human CXCR3 receptor. The method, then:
(§1) The cDNAs encoding human, mouse and rat CXCR3 were generated based on the published sequences: human (NM_001504), mouse (NM_009910), rat (NM_053415). The cDNAs for monkey and dog CXCR3 were cloned in the lab. All CXCR3 cDNAs were cloned into the mammalian expression vector pME18Sneo, a derivative of the SRα expression vector as described previously. IL-3-dependent mouse pro-B cells Ba/F3 were transfected to express CXCR3 of different species and cell membranes were prepared as described previously.
A scintillation proximity assay was used for radioligand competition binding assays as described previously with some modifications. For each assay point, 1 µg of membrane was preincubated for 1 hr with 300 µg wheat germ agglutinin (WGA) coated SPA beads (GE Healthcare Life Sciences) in the binding buffer (50 mM HEPES, 1 mM CaCl2, 5 mM MgCl2, 125 mM NaCl, 0.002% NaN3, 1.0% BSA) at room temperature. The beads were spun down, resuspended in the binding buffer and transferred to a 96-well Isoplate (Wallac, Gaithersburg, MD). The indicated concentrations of ^125I-hCXCL10, ^125I-hCXCL11 or ^35S-SCH 535390 with a series of titrations of SCH 546738 were added to start the reaction. After indicated reaction times at room temperature, the amount of radioactivity bound to the SPA beads was determined with a Wallac 1450 Microbeta counter (Wallac). […]

For data set [3], the target named is T1, CXCR3. As to the kind of experiment: [125I]hCXCL11 competition binding (SPA, Ba/F3 membranes). More on the design: expressed in transfected cells; host or cells: mouse pro-B Ba/F3 cells (vector pME18Sneo), membrane preparation. The method, then:
as §1
A scintillation proximity assay was used for radioligand competition binding assays as described previously with some modifications. For each assay point, 1 µg of membrane was preincubated for 1 hr with 300 µg wheat germ agglutinin (WGA) coated SPA beads (GE Healthcare Life Sciences) in the binding buffer (50 mM HEPES, 1 mM CaCl2, 5 mM MgCl2, 125 mM NaCl, 0.002% NaN3, 1.0% BSA) at room temperature. The beads were spun down, resuspended in the binding buffer and transferred to a 96-well Isoplate (Wallac, Gaithersburg, MD). The indicated concentrations of ^125I-hCXCL10, ^125I-hCXCL11 or ^35S-SCH 535390 with a series of titrations of SCH 546738 were added to start the reaction. After indicated reaction times at room temperature, the amount of radioactivity bound to the SPA beads was determined with a Wallac 1450 Microbeta counter (Wallac).
The ability of SCH 546738 to compete the binding of [^125I]hCXCL10 and [^125I]hCXCL11 to human CXCR3 receptor was determined using various concentrations of [^125I]hCXCL10 and [^125I]hCXCL11 as described in Methods. After 3 hr reaction, specific counts relative to input counts (B/B0) in the presence of increasing concentrations of SCH 546738 are plotted.

Where [4] appears, read: 40 mpk, paws collected on day 9.

Read-outs that look alike come from different tables or passages of the source.

Data on one compound can be found in PMC3298469, “A selective and potent CXCR3 antagonist SCH 546738 attenuates the development of autoimmune diseases and delays graft rejection” (BMC Immunology, 2012).

Method for C57BL/6 mice: Female C57BL/6 mice were purchased from Jackson Laboratory (Bar Harbor, ME). For immunization, 150 μg MOG35-55 peptide prepared by Princeton Biomolecules (Langhorne, PA, USA) and 300 μg killed Mycobacterium tuberculosis (Difco, Detroit, MI) were mixed in CFA (Sigma-Aldrich, St Louis, MO, USA) and injected s.c. in two 50-μl injections over the flanks on day 1. Also, 200 ng of pertussis toxin (Sigma-Aldrich, St Louis, MO) was injected i.v. on days 0 and 2. The compound was administered orally twice daily. Dosing with the compound started at day 0, 24 h prior to MOG35-55 immunization (day 1). Mice were monitored daily and assessed for clinical signs of disease in a blinded fashion according to the following criteria: 0, no signs of disease; 1, tail paralysis; 2, limp tail and hind limb weakness; 3, hind limb paralysis; 4, hind limb plus forelimb paralysis; and 5, moribund or dead. Cumulative clinical scores were calculated by adding daily scores from the day of immunization until the end of the experiment. Mean clinical scores at separate days and mean maximal scores were calculated by adding the scores of individual mice and dividing with the number of mice in each group, including mice not developing signs of EAE. […]
Method for male B10.RIII mice: Briefly, 12-week-old male B10.RIII mice (Jackson Laboratories, Bar Harbor, ME) were immunized intradermally at five sites with bovine type II collagen (Elastin Products, Owensville, MO) emulsified with an equal volume of complete Freund's adjuvant (CFA). CFA was comprised of a mixture of incomplete Freund's adjuvant (Difco, Detroit, MI) and heat-killed, freeze-dried Mycobacteria tuberculosis (Ministry of Agriculture, Fisheries & Food, Surrey, England). Each mouse received 300 µg/ml bovine type II collagen and 0.5 mg/ml complete Freund's adjuvant. Mice were boosted intraperitoneally with 100 µg of bovine type II collagen on day 20. Disease progression was monitored by a standardized visual scoring system with a scale from 0 to 12 reflecting the degree of swelling/redness of each paw (maximal score 3 per paw) and the number of paws (maximal 4) involved per individual animal.
After euthanasia, front and hind paws of the animals were dissected and fixed by immersion in 10% phosphate-buffered formalin before decalcification. Following decalcification with Cal-Rite (Richard Allen Scientific, Kalamazoo, MI), formalin fixed tissues were processed and sectioned at 5µm. Paraffin sections were stained with Hematoxylin and Eosin (H&E). […] The changes in joint structures, including cartilage destruction, bone erosion/remodelling and pannus formation were scored as follows: 0 = Normal, 1 = Minimal, 2 = Mild, 3 = Moderate, 4 = Marked, 5 = Severe. A grade of 5.5 was also added to address full-thickness cartilage breach. Cellular infiltrates and inflammation in animal joints were scored as the following: 0 = Normal, 1 = Minimal, 2 = Mild, 3 = Moderate, 4 = Marked.
Sixteen days later which was 4 days prior to receiving a BC II boost (day -4); mice were randomized into treatment groups with approximately 10% of the animals in each group having developed at least one swollen paw. Oral twice daily treatment with SCH 546738 was initiated at this time (day -4) and continued through day 9, with a BC II antigen boost on day 0.
SCH 546738 in 0.4% methylcellulose was administered orally twice daily at 3, 10 and 40 mg/kg (mpk). Dosing was initiated 16 days (day -4) postimmunization and continued through day 9.
Paws collected at day 9 from the vehicle (0.4% methylcellulose) and 40 mpk SCH 546738 groups of two independent experiments were analyzed by histopathology.

For the compound `CC[C@H]1CN(c2nc(N)c(C(N)=O)nc2Cl)CCN1C1CCN(Cc2ccc(Cl)cc2)CC1` [SCH 546738], in data set [1], the AUC(0-t) turned out to be 7.7 µM·h. Also, the results for the “effect on disease severity” value in the data set with male B10.RIII mice (3 mpk oral twice daily) and with Lewis rats were “no statistically significant effect” and “reduced the severity of the disease in a dose-dependent manner”, respectively. In addition, the “effect on disease score” value was “protected significantly” with male B10.RIII mice (10 mpk oral twice daily, days 7 and 9); “significant reduction of the disease score” in the data set on male B10.RIII mice (40 mpk oral twice daily, day -4 to day 9, days 4, 7 and 9). Moreover, the “leukocyte infiltration into the joint (histopathology score)” value in the data set with male B10.RIII mice (setting [4]) is “significantly attenuated”. Moreover, the “structural damage to the bone and cartilage (histopathology score)” value with male B10.RIII mice (setting [4]) is given as “significantly attenuated”. The “effect on disease onset and severity” value in the data set on C57BL/6 mice (30 mpk orally twice daily, alone, days 17 and 19) is “delayed disease onset and attenuated disease severity”. Moreover, the “effect on disease onset and severity, combination treatment” value in the data set with C57BL/6 mice (SCH 546738 30 mpk p.o. twice daily combined with IFN-β 1700 ng i.m. daily, compared to either alone) is listed as “significant additive effect”. In addition, on CXCR3 [2], the Ki (as a rule, the dissociation constant of the complex between target and ligand, obtained from inhibition or displacement) worked out at 0.4 nM. Besides, the IC50 on CXCR3 [3] ([125I-hI-TAC] 12.5 pM, 3 hr reaction, read-out: IC50) is 2 nM; on CXCR3 [3] ([125I-hI-TAC] 50 pM, 3 hr reaction, read-out: IC50), 1.8 nM; at CXCR3 [3] ([125I-hI-TAC] 250 pM, 3 hr reaction, read-out: IC50), 2.2 nM; on CXCR3 [3] ([125I]hCXCL11 12.5-250 pM, read-out: IC50 (constant, independent of input concentration)) it was ~2 nM.
